How the values were obtained:
Vero = assay: cells; settings: Chlorocebus sabaeus, 48 h
Description: Cytotoxicity against african green monkey Vero cells after 48 hrs by MTT assay

Description for physchem: Dissociation constant, pKa of the compound by UV-visible spectroscopy

| SMILES | IC50 (Vero) | pKa (physchem) |
| --- | --- | --- |
| CCN(CC)CCCC(C)Nc1c2ccccc2[n+](C)c2c1[nH]c1ccccc12 (configuration not stated) | 13000 nM | 11.4 |
| CCN(CC)c1c2ccccc2[n+](C)c2c1[nH]c1ccccc12 | 3000 nM |  |
| CN(C)CCCNc1c2ccccc2[n+](C)c2c1[nH]c1ccccc12 | 2200 nM | 11.9 |
| C[n+]1c2ccccc2c(NC2CCN(Cc3ccccc3)CC2)c2[nH]c3ccccc3c21 | 2200 nM | 11.5 |
| C[n+]1c2ccccc2c(NCCCN2CCCCC2)c2[nH]c3ccccc3c21 | 2000 nM | 11.7 |
| C[n+]1c2ccccc2c(Nc2cccnc2)c2[nH]c3ccccc3c21 | 2600 nM | 10.3 |
| C[n+]1c2cc(Cl)ccc2c(NC2CCNCC2)c2[nH]c3ccccc3c21 | 4400 nM | 11.1 |
| CCN(CC)Cc1ccc(Nc2c3ccccc3[n+](C)c3c2[nH]c2ccccc23)cc1O | 800 nM | 10.8 |
| CCN(CC)CCNc1c2ccccc2[n+](C)c2c1[nH]c1ccccc12 | 2800 nM | 11.6 |
| C[n+]1c2ccccc2c(Nc2ccccc2)c2[nH]c3ccccc3c21 | 600 nM | 10.6 |
| CC(CN(C)C)Nc1c2ccccc2[n+](C)c2c1[nH]c1ccccc12 (configuration not stated) | 3000 nM | 11.6 |
| CC(C)CN1CCC(Nc2c3ccccc3[n+](C)c3c2[nH]c2ccccc23)CC1 | 5000 nM | 11.6 |
| CN(C)CC(C)(C)CNc1c2ccccc2[n+](C)c2c1[nH]c1ccccc12 | 3000 nM | 11.7 |
| C[n+]1c2ccccc2c(NC2CCN(Cc3ccccc3O)CC2)c2[nH]c3ccccc3c21 | 2600 nM | 11.6 |
| CN(C)CCNc1c2ccccc2[n+](C)c2c1[nH]c1ccccc12 | 5500 nM | 11.6 |
| CCN(CC)CCCNc1c2ccccc2[n+](C)c2c1[nH]c1ccccc12 | 2500 nM | 11.6 |
| CCN(CC)CCCNc1c2ccc(Cl)cc2[n+](C)c2c1[nH]c1ccccc12 | 1300 nM | 11.2 |
| CC(C)NCCCNc1c2ccccc2[n+](C)c2c1[nH]c1ccccc12 | 3000 nM | 11.5 |
| C[n+]1c2cc(Cl)ccc2c(NC2CCNCC2)c2[nH]c3cc(Cl)ccc3c21 | 800 nM | 10.3 |

Source: ChEMBL document CHEMBL1287680, “C-11 diamino cryptolepine derivatives NSC748392, NSC748393, and NSC748394: anticancer profile and G-quadruplex stabilization” (Bioorg Med Chem Lett, 2010)
